# Laboratory results taken from PMC12040169 (PLOS Biology, 2025).
# Assay: in vitro
# Conditions: human, hela cells, % viability
row,SMILES,"viability at 28.5 h, 10 µM"
1,O=CN1CCc2c([nH]c3ccc(F)cc23)C12CCN(Cc1cccc(Oc3ccc(F)cc3)c1)CC2 [CBK040388],96.4%
2,Cc1ccc2[nH]c3c(c2c1)CCN(C=O)C31CCN(Cc2ccc(OC(F)F)cc2)CC1 [CBK040438],101%
3,CN(C)C(C)(C)COc1ncccc1OCCO [CBK042184],112%
4,CN1CCC[C@H]1COc1ncccc1OCCO [CBK042185],92.6%
5,CN1CCN(c2ccc([N+](=O)[O-])c(NCc3ccccc3)c2)CC1 [CBK042199],93.7%
6,O=[N+]([O-])c1ccc(N2CCN(CCO)CC2)cc1NCc1ccc(Cl)cc1 [CBK042201],99.6%
7,O=C(CNS(=O)(=O)c1ccc(F)cc1)N1CCOCC1 [CBK042214],97.7%
8,O=C(CNS(=O)(=O)c1cc(F)c(Br)cc1F)N1CCOCC1 [CBK042216],107%
9,O=C(CNS(=O)(=O)Cc1ccccc1[N+](=O)[O-])N1CCOCC1 [CBK042220],82.7%
10,O=C(CNS(=O)(=O)c1ccc(Oc2ccccc2)cc1)Nc1ccc(F)cc1 [CBK042229],104%
11,Cc1ccc(S(=O)(=O)Nc2sccc2C(=O)O)cc1[N+](=O)[O-] [CBK042258],102%
12,Cc1ccc(S(=O)(=O)Nc2sccc2C(=O)N2CCN(C)CC2)cc1 [CBK042264],89.3%
13,CN1CCN(C(=O)c2ccsc2NS(=O)(=O)c2ccc(Oc3ccccc3)cc2)CC1 [CBK042277],87%
14,O=C(c1ccsc1NS(=O)(=O)c1cc(Cl)sc1Cl)N1CCOCC1 [CBK042288],92.5%
15,Cc1ccc(S(=O)(=O)Nc2sccc2C(=O)Nc2ccc(F)cc2)cc1 [CBK042302],98.5%
16,O=C(Nc1ccc(F)cc1)c1ccsc1NS(=O)(=O)Cc1ccccc1[N+](=O)[O-] [CBK042313],91.7%
17,CCN(CC)C(=O)c1ccsc1NS(=O)(=O)c1cccc2cccnc12 [CBK042317],87.1%
18,CCN(CC)C(=O)c1ccsc1NS(=O)(=O)c1ccc(Br)cc1 [CBK042318],93.2%
19,CCCc1ccc(S(=O)(=O)Nc2ccccc2C(=O)O)cc1 [CBK042366],72.4%
20,Cc1noc(C)c1S(=O)(=O)Nc1ccccc1C(=O)O [CBK042371],89.8%
21,O=C(O)c1ccccc1NS(=O)(=O)Cc1ccccc1[N+](=O)[O-] [CBK042373],91.9%
22,Cc1ccc(S(=O)(=O)Nc2ccccc2C(=O)O)cc1[N+](=O)[O-] [CBK042374],84.5%

row,SMILES,"viability at 28.5 h, 10 µM"
1,CSc1cccc(NC(=O)N2CCN(C(=O)C3CCCO3)CC2)c1 (stereo not shown) [CBK043283],100%
2,O=C(c1ccccc1NS(=O)(=O)c1ccc(Br)cc1)N1CCOCC1 [CBK043340],100%
3,COc1cc(NC(=O)NCCc2cccs2)cc(OC)c1OC [CBK043347],94.6%
4,O=C(c1ccccc1NS(=O)(=O)c1ccc(C(F)(F)F)cc1[N+](=O)[O-])N1CCOCC1 [CBK043353],84.4%
5,CCC(C)(C)c1ccc(S(=O)(=O)N(C)CCC#N)cc1 [CBK043395],118%
6,COC(=O)NC(=O)N1CCN(c2c(Cl)cncc2Cl)CC1 [CBK043398],108%
7,CCOC(=O)CN(Cc1ccccc1)S(=O)(=O)c1ccc(C(C)C)cc1 [CBK043404],103%
8,CCCN(CCC#N)S(=O)(=O)c1ccc(C(C)C)cc1 [CBK043453],94.4%
9,Cc1cc(S(=O)(=O)N(CCC#N)Cc2ccccc2)c(C)cc1Cl [CBK043461],90.8%
10,CC(C)c1ccc(S(=O)(=O)NCc2c(F)ccc(Cl)c2F)cc1 [CBK043484],88.4%
11,CNC(=O)c1ccc(NS(=O)(=O)c2ccc(OC(F)(F)F)cc2)cc1 [CBK043495],96.7%
12,O=S(=O)(Nc1ccccc1O)c1ccc(OC(F)(F)F)cc1 [CBK043512],80.2%
13,CCC(O)CNS(=O)(=O)c1ccc(OC(F)(F)F)cc1 (stereo not shown) [CBK043557],97.9%
14,Cc1ccc(NS(=O)(=O)c2ccc(OC(F)(F)F)cc2)nc1 [CBK043577],95.8%
15,O=S(=O)(c1ccc(Br)s1)N1CCC(Cc2ccccc2)CC1 [CBK043580],89.7%
16,CC(C)c1ccc(S(=O)(=O)N(C)Cc2cccnc2)cc1 [CBK043582],108%
17,CC(NS(=O)(=O)c1cccs1)c1ccccc1 (stereo not shown) [CBK043601],114%
18,CC(=O)c1cccc(NS(=O)(=O)c2ccc(OC(F)(F)F)cc2)c1 [CBK043606],88.5%
19,Cc1cc(S(=O)(=O)N(CCC#N)c2ccccc2)c(C)cc1Cl [CBK043618],85.7%
20,O=S(=O)(CCc1ccccn1)N1CCC(Cc2ccccc2)CC1 [CBK043632],107%
21,Fc1ccc2c(ccn2CCCN2CCN(c3ccncc3)CC2)c1 [CBK043645G],89.4%
22,CCOC(=O)CN1CCN(C(=O)Nc2ccccc2OC(F)(F)F)CC1 [CBK043656],97%

row,SMILES,"viability at 28.5 h, 10 µM"
1,CCCNC(=O)NCCc1cccs1 [CBK043675],102%
2,N#CC(NS(=O)(=O)c1ccc(OC(F)(F)F)cc1)c1ccccc1 (stereo not shown) [CBK043714],97.6%
3,CC(=O)NCCNS(=O)(=O)c1ccc(C(C)C)cc1 [CBK043726],92.5%
4,CCC(C)(C)c1ccc(S(=O)(=O)Nc2n[nH]cc2Br)cc1 [CBK043734],85%
5,N#Cc1ccc(NC(=O)NCCc2cccs2)cc1 [CBK043736],115%
6,O=S(=O)(NCc1ccc(C(F)(F)F)cc1)c1cccs1 [CBK043744],94.5%
7,CCOC(=O)C1CCN(S(=O)(=O)c2ccc(NC(C)=O)c(Cl)c2)CC1 [CBK043748],93.5%
8,O=C(NCCc1cccs1)Nc1ccc(Cl)c(C(F)(F)F)c1 [CBK043775],97.6%
9,CCOC(=O)CN1CCN(S(=O)(=O)c2ccc(F)c(Cl)c2)CC1 [CBK043782],89.3%
10,O=S(=O)(NCc1ccc(F)cc1Cl)c1ccc(Cl)c(Cl)c1 [CBK043785],91%
11,Cc1cc(S(=O)(=O)N(C)CCC#N)c(C)cc1Cl [CBK043787],111%
12,O=S(=O)(c1ccc(Cl)c(Cl)c1)N1CCOCC1 [CBK043794],90.7%
13,CCN(Cc1ccncc1)S(=O)(=O)c1ccc(Cl)c(Cl)c1 [CBK043818],96.2%
14,COCCN(C)S(=O)(=O)c1cc(C)c(Cl)cc1C [CBK043867],105%
15,CCc1cc(Br)ccc1S(=O)(=O)Nc1ccccc1O [CBK043877],92%
16,O=S(=O)(Nc1cccc2cccnc12)c1cccs1 [CBK043904],60.8%
17,CC(C)c1ccccc1NC(=O)NCCc1cccs1 [CBK043938],97.9%
18,Cc1cccc(C(C)(C)C)c1NC(=O)N1CCC(Cc2ccccc2)CC1 [CBK043962],112%
19,O=C(Nc1ccc2ccccc2c1)N1CCN(C(=O)C2CCCO2)CC1 (stereo not shown) [CBK044043],96.6%
20,CC(=O)Nc1ccc(S(=O)(=O)Nc2ccc(CC#N)cc2)cc1Cl [CBK044058],87.8%
21,O=S(=O)(NCCc1cccc(C(F)(F)F)c1)c1cccs1 [CBK044068],91.1%
22,CC1CN(C2CCN(S(=O)(=O)c3cccs3)CC2)C(=O)O1 (stereo not shown) [CBK044072],112%

row,SMILES,"viability at 28.5 h, 10 µM"
1,COC(=O)c1cc(NC(=O)NCCC2=CCCCC2)cc(C(=O)OC)c1 [CBK044120],90.9%
2,CCC(C)(C)c1ccc(S(=O)(=O)NCCCN2CCCC2)cc1 [CBK044126],95.8%
3,Cc1ccc(NC(=O)NCCC2=CCCCC2)cc1Cl [CBK044135],110%
4,CCOC(=O)CN1CCN(C(=O)Nc2ccccc2Br)CC1 [CBK044156],103%
5,CCOC(=O)NC(=O)N1CCC(N2C(=O)OCC2(C)C)CC1 [CBK044179],90.5%
6,O=C(NCCC1=CCCCC1)Nc1ccc2ccccc2c1 [CBK044195],104%
7,Cc1cc(S(=O)(=O)NCC(=O)OC(C)C)c(C)cc1Cl [CBK044196],101%
8,Cc1cc(C(=O)N2CCC(N3C(=O)OCC3(C)C)CC2)n(C(C)(C)C)n1 [CBK044233],94.4%
9,Cn1nc(C(C)(C)C)cc1C(=O)N1CCC(N2C(=O)OCC2(C)C)CC1 [CBK044234],81.5%
10,CC(=O)Nc1ccc(S(=O)(=O)NCCC#N)cc1Cl [CBK044272],95.2%
11,O=S(=O)(c1ccc(OC(F)(F)F)cc1)N1CCc2ccccc21 [CBK044279],96.7%
12,CCCCCc1ccc(S(=O)(=O)N2CCN(C(=O)C3CCCO3)CC2)cc1 (stereo not shown) [CBK044329],101%
13,CCOC(=O)CN1CCN(S(=O)(=O)c2ccc(F)c(F)c2F)CC1 [CBK044345],92.4%
14,N#Cc1ccccc1NC(=O)NCCC1=CCCCC1 [CBK044365],95.1%
15,O=[N+]([O-])c1cccc(NS(=O)(=O)c2ccc(Cl)c(Cl)c2)c1 [CBK044396],78.5%
16,CC(C)c1ccc(S(=O)(=O)NC(C#N)c2ccccc2)cc1 (stereo not shown) [CBK044403],101%
17,O=S(=O)(NCCc1ccncc1)c1ccc(Cl)c(Cl)c1 [CBK044438],97.9%
18,CC(C)c1ccc(S(=O)(=O)Nc2ccc3[nH]c(C(F)(F)F)nc3c2)cc1 [CBK044470],90.3%
19,O=S(=O)(Nc1cccc2ncccc12)c1ccc(OC(F)(F)F)cc1 [CBK044490],112%
20,O=S(=O)(c1cccs1)N1CCc2ccccc2C1 [CBK044531],113%
21,O=C(NCCc1cccs1)Nc1ccc(F)c(F)c1F [CBK044543],96.1%
22,CC(C)c1ccc(S(=O)(=O)Nc2ccc(Br)c(F)c2)cc1 [CBK044556],100%

# Same assay, conditions: human, hela cells, % viability, bulk resorufin, single well
row,SMILES,"viability at 28.5 h, 10 µM"
1,O=C(Nc1ccccc1C(F)(F)F)N1CCC2(CC1)OCCO2 [CBK043655],94.1%
2,COC(=O)c1cccc(NC(=O)N2CCC3(CC2)OCCO3)c1 [CBK043713],91.1%
3,CC(C)(C)c1ccccc1NC(=O)N1CCC2(CC1)OCCO2 [CBK043720],91.3%
